ChEMBL document CHEMBL6127116, “Discovery of Potent and Selective Blockers Targeting the Epilepsy-Associated KNa1.1 Channel” (J Med Chem, 2024)

Columns and labels:
[1] = Inhibition of KNa 1.1 (unknown origin); design: species or system Homo sapiens
HEK293 = test: Cytotoxicity against HEK293 cells assessed as reduction in cell viability at 10 uM by CCK8 method relative to control; type: toxicity, cell-based; conditions: human, hek293, 10 µM
[2] = target: Sodium channel protein type 5 subunit alpha (Homo sapiens, UniProt Q14524); test: Inhibition of Nav1.5 (unknown origin) expressed in HEK293T cells at 10 uM by patch-clamp electrophysiology method; type: cell-based
[3] = Drug concentration in male ICR mouse brain at 50 mg/kg, po measured after 0.5 hrs by LC-MS/MS analysis; type: ADME, organism-based; conditions: read-out: Ct
[4] = MRT (0 to t) in male ICR mouse at 50 mg/kg, po administered as single dose measured upto 24 hrs by HPLC analysis; type: ADME, organism-based; conditions: in vivo
[5] = Drug concentration in male ICR mouse plasma at 50 mg/kg, po measured after 2 hrs by LC-MS/MS analysis; type: ADME, organism-based
[6] = Ratio of drug concentration in male ICR mouse brain to plasma at 10 mg/kg, iv measured after 0.5 hrs by LC-MS/MS analysis; type: ADME, organism-based; conditions: brain and plasma, read-out: BPR
[7] = Drug concentration in male ICR mouse brain at 50 mg/kg, po measured after 2 hrs by LC-MS/MS analysis; type: ADME, organism-based; conditions: read-out: Ct
[8] = Oral bioavailability in male ICR mouse at 50 mg/kg administered as single dose measured upto 24 hrs by HPLC analysis; type: ADME, organism-based; conditions: in vivo
[9] = Drug concentration in male ICR mouse plasma at 50 mg/kg, po measured after 0.5 hrs by LC-MS/MS analysis; type: ADME, organism-based
[10] = Clearance in male ICR mouse at 10 mg/kg, iv administered as single dose measured upto 24 hrs by HPLC analysis; type: ADME, organism-based; conditions: in vivo
[11] = Drug concentration in male ICR mouse brain at 10 mg/kg, iv measured after 2 hrs by LC-MS/MS analysis; type: ADME, organism-based; conditions: read-out: Ct
[12] = Drug concentration in male ICR mouse plasma at 10 mg/kg, iv measured after 2 hrs by LC-MS/MS analysis; type: ADME, organism-based
[13] = Ratio of drug concentration in male ICR mouse brain to plasma at 10 mg/kg, iv measured after 2 hrs by LC-MS/MS analysis; type: ADME, organism-based; conditions: brain and plasma, read-out: BPR
[14] = MRT (0 to t) in male ICR mouse at 10 mg/kg, iv administered as single dose measured upto 24 hrs by HPLC analysis; type: ADME, organism-based; conditions: in vivo
[15] = Tmax in male ICR mouse at 50 mg/kg, po administered as single dose measured upto 24 hrs by HPLC analysis; type: ADME, organism-based; conditions: in vivo
[16] = Cmax in male ICR mouse at 50 mg/kg, po administered as single dose measured upto 24 hrs by HPLC analysis; type: ADME, organism-based; conditions: in vivo
[17] = Cmax in male ICR mouse at 10 mg/kg, iv administered as single dose measured upto 24 hrs by HPLC analysis; type: ADME, organism-based; conditions: in vivo
[18] = Ratio of drug concentration in male ICR mouse brain to plasma at 50 mg/kg, po measured after 0.5 hrs by LC-MS/MS analysis; type: ADME, organism-based; conditions: brain and plasma, read-out: BPR
[19] = AUC (0 to t) in male ICR mouse at 10 mg/kg, iv administered as single dose measured upto 24 hrs by HPLC analysis; type: ADME, organism-based; conditions: in vivo
[20] = Drug concentration in male ICR mouse brain at 10 mg/kg, iv measured after 0.5 hrs by LC-MS/MS analysis; type: ADME, organism-based; conditions: read-out: Ct
[21] = target: T1, Voltage-gated inwardly rectifying potassium channel KCNH2 (Homo sapiens, UniProt Q12809); test: Inhibition of human ERG expressed in Xenopus laevis oocytes by two-electrode voltage clamp method; type: toxicity, cell-based, Oocyte
[22] = target: T1, Voltage-gated inwardly rectifying potassium channel KCNH2; test: Inhibition of human ERG expressed in Xenopus laevis oocytes at 10 uM by two-electrode voltage clamp method; type: toxicity, cell-based; conditions: oocyte
[23] = Inhibition of KNa1.1 F327I mutant (unknown origin) expressed in HEK293T cells by patch-clamp electrophysiology method; type: cell-based; conditions: Homo sapiens, HEK-293T
[24] = Volume of distribution at steady state in male ICR mouse at 10 mg/kg, iv administered as single dose measured upto 24 hrs by HPLC analysis; type: ADME, organism-based; conditions: in vivo, read-out: Vdss
[25] = Drug concentration in male ICR mouse plasma at 10 mg/kg, iv measured after 0.5 hrs by LC-MS/MS analysis; type: ADME, organism-based
[26] = Ratio of drug concentration in male ICR mouse brain to plasma at 50 mg/kg, po measured after 2 hrs by LC-MS/MS analysis; type: ADME, organism-based; conditions: brain and plasma, read-out: BPR
[27] = Half life in male ICR mouse at 50 mg/kg, po administered as single dose measured upto 24 hrs by HPLC analysis; type: ADME, organism-based; conditions: in vivo
[28] = Tmax in male ICR mouse at 10 mg/kg, iv administered as single dose measured upto 24 hrs by HPLC analysis; type: ADME, organism-based; conditions: in vivo
[29] = Half life in male ICR mouse at 10 mg/kg, iv administered as single dose measured upto 24 hrs by HPLC analysis; type: ADME, organism-based; conditions: in vivo
[30] = Inhibition of human KNa1.1 Y796H mutant expressed in HEK293T cells by patch-clamp electrophysiology method; type: cell-based; conditions: HEK-293T
[31] = target: T2, Potassium channel subfamily T member 1 (Homo sapiens, UniProt Q5JUK3); test: Inhibition of wild type human KNa1.1 expressed in HEK293T cells by patch-clamp electrophysiology method; type: cell-based
T2 sequence (Q5JUK3 whole entry): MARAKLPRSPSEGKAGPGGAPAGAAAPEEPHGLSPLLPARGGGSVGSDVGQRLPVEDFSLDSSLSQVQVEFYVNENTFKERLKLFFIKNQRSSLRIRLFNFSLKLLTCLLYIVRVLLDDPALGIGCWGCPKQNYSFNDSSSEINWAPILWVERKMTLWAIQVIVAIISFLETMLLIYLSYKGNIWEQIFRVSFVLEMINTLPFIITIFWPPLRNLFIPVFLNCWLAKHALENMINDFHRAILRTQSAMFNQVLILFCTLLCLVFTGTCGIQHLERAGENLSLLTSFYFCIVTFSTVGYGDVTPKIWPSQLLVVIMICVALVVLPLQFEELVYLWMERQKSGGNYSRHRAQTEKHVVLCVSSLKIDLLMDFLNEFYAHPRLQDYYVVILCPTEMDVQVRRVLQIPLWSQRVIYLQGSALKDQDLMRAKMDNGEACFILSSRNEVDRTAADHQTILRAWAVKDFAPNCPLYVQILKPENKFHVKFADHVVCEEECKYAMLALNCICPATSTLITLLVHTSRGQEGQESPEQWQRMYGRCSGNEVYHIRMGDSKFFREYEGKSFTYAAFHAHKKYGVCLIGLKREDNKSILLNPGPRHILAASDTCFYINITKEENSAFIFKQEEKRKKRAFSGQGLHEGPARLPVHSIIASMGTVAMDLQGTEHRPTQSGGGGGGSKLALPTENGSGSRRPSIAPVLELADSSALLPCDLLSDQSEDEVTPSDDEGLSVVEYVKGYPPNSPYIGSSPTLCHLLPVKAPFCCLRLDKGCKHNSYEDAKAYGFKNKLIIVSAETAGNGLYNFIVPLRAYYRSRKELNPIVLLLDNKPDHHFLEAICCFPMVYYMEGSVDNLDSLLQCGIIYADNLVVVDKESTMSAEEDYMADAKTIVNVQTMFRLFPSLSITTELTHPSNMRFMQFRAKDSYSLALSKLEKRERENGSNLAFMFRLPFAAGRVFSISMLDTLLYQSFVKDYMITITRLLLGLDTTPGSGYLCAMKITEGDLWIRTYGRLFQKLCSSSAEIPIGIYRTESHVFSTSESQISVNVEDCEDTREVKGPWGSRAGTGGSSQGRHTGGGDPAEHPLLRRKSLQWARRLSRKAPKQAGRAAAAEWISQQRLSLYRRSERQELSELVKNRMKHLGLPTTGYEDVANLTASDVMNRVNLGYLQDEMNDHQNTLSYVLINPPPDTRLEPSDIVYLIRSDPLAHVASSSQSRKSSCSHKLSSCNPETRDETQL

[32] = AUC (0 to t) in male ICR mouse at 50 mg/kg, po administered as single dose measured upto 24 hrs by HPLC analysis; type: ADME, organism-based; conditions: in vivo
[33] = Inhibition of human wild type SLACK expressed in CHO cells by Whole-cell automated patch clamp assay; type: cell-based

T1 sequence (Q12809 whole entry): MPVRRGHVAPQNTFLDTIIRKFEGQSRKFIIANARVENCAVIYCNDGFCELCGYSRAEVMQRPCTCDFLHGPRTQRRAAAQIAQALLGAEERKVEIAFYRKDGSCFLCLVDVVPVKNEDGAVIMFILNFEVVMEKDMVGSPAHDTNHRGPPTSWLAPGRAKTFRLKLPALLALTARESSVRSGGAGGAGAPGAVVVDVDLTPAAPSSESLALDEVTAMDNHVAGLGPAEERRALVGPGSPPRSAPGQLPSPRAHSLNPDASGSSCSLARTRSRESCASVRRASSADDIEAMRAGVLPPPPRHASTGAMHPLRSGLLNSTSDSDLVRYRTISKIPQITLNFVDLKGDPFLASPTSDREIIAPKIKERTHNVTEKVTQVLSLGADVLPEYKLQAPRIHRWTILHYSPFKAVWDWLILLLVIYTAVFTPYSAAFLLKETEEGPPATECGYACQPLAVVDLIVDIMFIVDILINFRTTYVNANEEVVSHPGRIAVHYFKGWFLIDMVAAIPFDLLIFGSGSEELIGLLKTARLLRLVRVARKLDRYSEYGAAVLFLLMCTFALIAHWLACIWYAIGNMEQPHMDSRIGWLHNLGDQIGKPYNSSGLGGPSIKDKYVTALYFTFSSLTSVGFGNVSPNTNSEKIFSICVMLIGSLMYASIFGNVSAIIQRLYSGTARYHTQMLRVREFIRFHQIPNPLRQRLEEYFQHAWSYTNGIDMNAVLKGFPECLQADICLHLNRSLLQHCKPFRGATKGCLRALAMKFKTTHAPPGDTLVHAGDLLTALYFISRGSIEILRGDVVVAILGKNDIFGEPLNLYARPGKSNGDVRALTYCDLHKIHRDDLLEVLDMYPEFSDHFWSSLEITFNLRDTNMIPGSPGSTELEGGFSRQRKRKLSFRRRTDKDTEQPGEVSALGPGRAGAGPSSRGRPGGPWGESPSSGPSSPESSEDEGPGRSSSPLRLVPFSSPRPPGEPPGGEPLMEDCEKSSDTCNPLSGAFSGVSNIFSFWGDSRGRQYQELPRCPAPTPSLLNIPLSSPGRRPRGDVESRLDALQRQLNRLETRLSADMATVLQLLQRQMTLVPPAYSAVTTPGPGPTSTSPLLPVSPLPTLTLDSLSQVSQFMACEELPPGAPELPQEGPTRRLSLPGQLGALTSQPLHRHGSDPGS
Chain of Sodium channel protein type 5 subunit alpha (Q14524 whole entry): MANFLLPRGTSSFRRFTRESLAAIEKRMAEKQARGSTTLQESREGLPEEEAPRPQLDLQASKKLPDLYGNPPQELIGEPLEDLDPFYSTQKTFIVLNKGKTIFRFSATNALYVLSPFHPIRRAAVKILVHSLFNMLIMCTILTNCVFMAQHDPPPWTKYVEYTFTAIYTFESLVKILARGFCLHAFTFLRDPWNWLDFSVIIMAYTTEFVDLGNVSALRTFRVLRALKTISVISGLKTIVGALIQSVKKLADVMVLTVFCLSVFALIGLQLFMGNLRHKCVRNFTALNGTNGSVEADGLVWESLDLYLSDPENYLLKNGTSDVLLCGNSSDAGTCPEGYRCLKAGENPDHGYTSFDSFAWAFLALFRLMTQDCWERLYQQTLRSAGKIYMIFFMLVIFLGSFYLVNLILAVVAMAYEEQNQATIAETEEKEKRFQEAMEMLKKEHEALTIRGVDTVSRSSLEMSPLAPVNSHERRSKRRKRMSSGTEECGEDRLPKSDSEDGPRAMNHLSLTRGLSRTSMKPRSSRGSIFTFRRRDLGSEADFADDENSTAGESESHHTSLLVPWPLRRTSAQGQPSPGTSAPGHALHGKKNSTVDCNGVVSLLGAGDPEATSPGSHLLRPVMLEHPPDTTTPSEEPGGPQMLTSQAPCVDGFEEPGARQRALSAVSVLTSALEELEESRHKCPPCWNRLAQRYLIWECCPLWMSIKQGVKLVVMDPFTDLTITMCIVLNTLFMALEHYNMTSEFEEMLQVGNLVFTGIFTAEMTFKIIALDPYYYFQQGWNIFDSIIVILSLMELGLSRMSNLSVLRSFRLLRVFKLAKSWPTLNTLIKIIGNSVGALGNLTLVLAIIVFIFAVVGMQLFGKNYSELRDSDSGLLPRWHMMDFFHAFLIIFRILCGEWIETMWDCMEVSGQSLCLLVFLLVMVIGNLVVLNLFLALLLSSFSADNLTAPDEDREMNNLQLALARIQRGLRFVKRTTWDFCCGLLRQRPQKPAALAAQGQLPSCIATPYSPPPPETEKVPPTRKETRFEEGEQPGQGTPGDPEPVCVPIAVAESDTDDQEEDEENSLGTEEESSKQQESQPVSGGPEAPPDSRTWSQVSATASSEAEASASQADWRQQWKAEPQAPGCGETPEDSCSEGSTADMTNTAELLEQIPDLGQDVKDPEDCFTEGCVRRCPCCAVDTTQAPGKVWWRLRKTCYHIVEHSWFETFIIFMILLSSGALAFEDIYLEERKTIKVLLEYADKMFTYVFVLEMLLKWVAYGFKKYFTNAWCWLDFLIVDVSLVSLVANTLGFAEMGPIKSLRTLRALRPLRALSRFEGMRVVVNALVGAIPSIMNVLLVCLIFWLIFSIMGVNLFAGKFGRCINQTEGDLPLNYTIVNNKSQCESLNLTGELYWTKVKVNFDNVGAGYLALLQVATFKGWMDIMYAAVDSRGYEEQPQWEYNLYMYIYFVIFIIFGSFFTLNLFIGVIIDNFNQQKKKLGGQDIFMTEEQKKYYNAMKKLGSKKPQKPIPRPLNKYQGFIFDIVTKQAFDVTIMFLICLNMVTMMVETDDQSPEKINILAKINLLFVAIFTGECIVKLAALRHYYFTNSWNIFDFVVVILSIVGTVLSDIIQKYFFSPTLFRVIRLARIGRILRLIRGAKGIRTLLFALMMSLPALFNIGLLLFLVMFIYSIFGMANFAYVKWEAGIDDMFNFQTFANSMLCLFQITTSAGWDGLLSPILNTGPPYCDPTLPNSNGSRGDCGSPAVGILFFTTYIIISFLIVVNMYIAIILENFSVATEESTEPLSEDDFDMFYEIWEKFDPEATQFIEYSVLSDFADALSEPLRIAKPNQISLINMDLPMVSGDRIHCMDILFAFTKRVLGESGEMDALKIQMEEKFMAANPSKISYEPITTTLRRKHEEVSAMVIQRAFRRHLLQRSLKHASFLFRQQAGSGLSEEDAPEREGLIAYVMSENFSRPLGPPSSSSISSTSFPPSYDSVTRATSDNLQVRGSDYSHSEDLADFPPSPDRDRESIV

`C=C[C@H]1CN2CC[C@H]1C[C@@H]2[C@@H](O)c1ccnc2ccc(OC)cc12` [QUINIDINE] showed an IC50 [1] of 89.6 µM and an Activity (HEK293) of 103.53%.
Work on `CCOc1ccccc1S(=O)(=O)N1CC(c2nc(-c3ccsc3)no2)C1` yielded an IC50 [1] of 2.1 µM.
For `CCn1c2c(c3ccccc31)CN(CCCCNCc1c(OCc3ccc(F)cc3)ccc3ccccc13)CC2`, the “inhibition (INH)” value [2] was “Not Active”.
Compound `c1ccc(COc2ccc3ccccc3c2CCC2CCNCC2)cc1` has a concentration at 0.5 h [3] of 604 ng/mL, an MRT last at 24 h [4] of 4.96 h and a concentration at 2 h [5] of 893 ng/mL. The Kp at 0.5 h [6] was 7.8, the concentration at 2 h [7] was 1200 ng/mL and the bioavailability [8] was 32.8%. The concentration at 0.5 h [9] was 1290 ng/mL, the clearance [10] was 36.6 mL/min/kg and the concentration at 2 h [11] was 3330 ng/mL. The “inhibition (INH)” value [2] was “Not Active”, the concentration at 2 h [12] was 605 ng/mL and the Kp at 2 h [13] was 5.51. The MRT last at 24 h [14] was 3.12 h, the Tmax [15] was 0.5 h and the Cmax [16] was 1290 ng/mL. The Cmax [17] was 2180 ng/mL, the Kp at 0.5 h [18] was 0.47 and the AUC(0-t) at 24 h [19] was 4550 ng·h/mL. For the same compound, the concentration at 0.5 h [20] was 8010 ng/mL, the IC50 [21] was 90.2 µM and the “inhibition (INH)” value [22] was “Not Active”. It also gave an IC50 [23] of 24.2 µM, a Vd [24] of 6.91 L/kg and a concentration at 0.5 h [25] of 1030 ng/mL. The Kp at 2 h [26] was 1.34, the half-life [27] was 3.11 h and the Tmax [28] was 4.8 min. The half-life [29] was 2.46 h, the IC50 [30] was 0.4 µM and the IC50 [31] was 3.43 µM. It also gave an AUC(0-t) at 24 h [32] of 7450 ng·h/mL and an Activity (HEK293) of 99.63%.
Compound `Cc1ccc2cccc(S(=O)(=O)N3CC(c4nc(-c5ccc(F)cc5)no4)C3)c2n1` has an IC50 [33] of 0.32 µM.
For `CN1CCC(NCc2c(OCc3ccc(F)cc3)ccc3ccccc23)CC1`, the Activity (HEK293) was 53.17%.
